In PMC6611809, “Actin stabilizing compounds show specific biological effects due to their binding mode” (Scientific Reports, 2019):

Molecular target: T1, actin (F-actin) (Oryctolagus cuniculus, UniProt P68135)
T1 construct: gene ACTA1; Atto488-labeled F-actin from rabbit skeletal muscle
Assay: TIRF displacement of rhodamine-phalloidin from purified actin filaments; supported by pyrene, TIRF and FCS polymerization assays
Type: binding
Text: TIRF displacement of rhodamine-phalloidin from purified actin filaments; supported by pyrene, TIRF and FCS polymerization assays on actin (F-actin) | Rhodamine-labeled phalloidin could be displaced from actin filaments by MiuA in a concentration dependent manner

CO/C(=C1/NC(=O)C(Cc2ccc(O)c(Br)c2)N(C)C(=O)C(C)NC(=O)CCC/C=C(\C)CCC(C)OC1=O)c1ccccc1 (stereo not shown) [MiuA, Miuraenamide A]
IC50: ~5 nM
